Measurements as given in paper PMC2907470 (Nature chemical biology, 2010).

Tests used:
Scn-Ngal [1] = target: T1, Scn-Ngal (Homo sapiens, UniProt P80188); type: binding; settings: for iron retention by Scn-Ngal, dose-response: urinary compounds 0.5–100 µM, Scn-Ngal 10 µM
[2] = test system: embryonic kidney FoxD1+ stromal cells; experiment: Capture of 55Fe from Scn-Ngal:catechol:55Fe by kidney stromal cells; type: cell-based, mouse; settings: 37°C, bafilomycin 0.15 nmole, 3 hrs
Scn-Ngal [3] = target: T1, Scn-Ngal; experiment: Release of ligands from Scn-Ngal on acidification; type: binding; settings: acidification from neutral pH; n = 3
[4] = Stability of catechol in solution monitored by NMR; settings: monitored for 20 hrs by NMR, D2O
C57BL/6 mice = type: in vivo, mouse; settings: for cleared in the urine: by 180 min after introduction; for organ distribution: i.p., 20 and 180 min
Scn-Ngal [5] = target: T1, Scn-Ngal; experiment: Fluorescence quenching analysis of Scn-Ngal with free catechol ligands; type: binding; settings: with iron III versus catechol itself
[6] = target: Scn-Ngal K125A, K134A mutant (Homo sapiens, UniProt P80188, K145A/K154A); experiment: 55Fe retention by Scn-Ngal K125A, K134A mutant; type: binding; settings: K125 and K134 mutated to alanine, versus wild type
LLCPK cells = experiment: Iron responsive 5'IRE-YFP reporter in LLCPK cells; type: cell-based; settings: 100 or 500 µg/ml, 16 hrs, compared to DMEM alone
[7] = test system: kidney proximal tubule LLCPK1 cells; experiment: Capture of 55Fe from Scn-Ngal:catechol:55Fe by LLCPK cells; type: cell-based; settings: 37°C
[8] = Generation of hydroxyl radicals; type: biochemical; settings: 10 µM FeCl3, 30 µM catechols, 2 mM H2O2; Scn-Ngal 10 µM where added

Chain of Scn-Ngal K125A, K134A mutant (P80188 21-198 K145A/K154A): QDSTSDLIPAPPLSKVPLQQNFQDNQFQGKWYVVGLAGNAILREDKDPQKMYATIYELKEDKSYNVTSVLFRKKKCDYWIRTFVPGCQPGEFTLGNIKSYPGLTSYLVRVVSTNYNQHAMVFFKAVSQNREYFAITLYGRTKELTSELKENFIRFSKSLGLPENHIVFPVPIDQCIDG

## O=C(N[C@H]1COC(=O)[C@@H](NC(=O)c2cccc(O)c2O)COC(=O)[C@@H](NC(=O)c2cccc(O)c2O)COC1=O)c1cccc(O)c1O [Ent, reference compound]
Scn-Ngal [1]; 50 fold molar excess of Ent presaturated with non-radioactive iron
  association of urinary catechols with Scn-Ngal in presence of competitor: blocked

## bafilomycin [reference compound]
[2]
  55Fe uptake: inhibited

## Cc1cccc(O)c1O [3-methylcatechol, 3-methylbenzene-1,2-diol]
Scn-Ngal [1]
  iron retention by Scn-Ngal, dose-response: saturable iron retention
Scn-Ngal [3]
  pH at which Scn-Ngal:ligand:FeIII complex dissociated: 6.0

## Oc1ccccc1O [Catechol, benzene-1,2-diol]
[4]
  stability in solution: stable in solution
Scn-Ngal [1]
  iron retention by Scn-Ngal, dose-response: saturable iron retention
C57BL/6 mice
  cleared in the urine: 80.56±8.8%
Scn-Ngal [5]
  increase in binding affinity in the presence of iron III: 100 fold
Scn-Ngal [3]
  pH at which Scn-Ngal:ligand:FeIII complex dissociated: 6.0

## transferrin:iron: iron-loaded transferrin, comparator [reference compound]
C57BL/6 mice
  organ distribution: accumulated in the bone marrow

## O=C(N[C@H]1COC(=O)[C@@H](NC(=O)c2cccc([O-])c2[O-])COC(=O)[C@@H](NC(=O)c2cccc([O-])c2[O-])COC1=O)c1cccc([O-])c1[O-].[Fe+3] [Ent:Fe]
[6]
  capture of siderophore:Fe by mutant Scn-Ngal: ineffective

## Cc1ccc(O)c(O)c1 [4-methylcatechol, 4-methylbenzene-1,2-diol]
Scn-Ngal [1]
  iron retention by Scn-Ngal, dose-response: saturable iron retention

## Oc1cccc(O)c1O [Pyrogallol, benzene-1,2,3-triol]
Scn-Ngal [1]
  iron retention by Scn-Ngal, dose-response: saturable iron retention
Scn-Ngal [3]
  pH at which Scn-Ngal:ligand:FeIII complex dissociated: < 4

B1: Scn-Ngal:catechol:Fe: complex of the lipocalin Scn-Ngal with catechol and iron (protein, UniProt P80188 21-198, looked up)
Neutrophil …: QDSTSDLIPAPPLSKVPLQQNFQDNQFQGKWYVVGLAGNAILREDKDPQKMYATIYELKEDKSYNVTSVLFRKKKCDYWIRTFVPGCQPGEFTLGNIKSYPGLTSYLVRVVSTNYNQHAMVFFKKVSQNREYFKITLYGRTKELTSELKENFIRFSKSLGLPENHIVFPVPIDQCIDG
modifications: complex with catechol and iron
LLCPK cells
  iron dependent YFP probe: activated
[7]
  55Fe uptake: Uptake occurred
C57BL/6 mice
  cleared in the urine: 56.4±6.7%
  organ distribution: targeted the kidney
[2]
  55Fe uptake: Uptake occurred

B2: Scn-Ngal: Neutrophil Gelatinase Associated Lipocalin, recombinant, expressed in BL-21 bacteria (protein, UniProt P80188 21-198, looked up)
Neutrophil …: QDSTSDLIPAPPLSKVPLQQNFQDNQFQGKWYVVGLAGNAILREDKDPQKMYATIYELKEDKSYNVTSVLFRKKKCDYWIRTFVPGCQPGEFTLGNIKSYPGLTSYLVRVVSTNYNQHAMVFFKKVSQNREYFKITLYGRTKELTSELKENFIRFSKSLGLPENHIVFPVPIDQCIDG
[8]
  conversion of HPF to fluorescein (hydroxyl radical formation): blocked the reaction
